SMILES strings stand for the structures.

Data on 16 compounds can be found in patent US12649733B2, “3,6-diamino-pyridazin-3-yl derivatives, pharmaceutical compositions containing them and their uses as pro-apoptotic agents” (LES LABORATOIRES SERVIER, priority 2019, dated 2026).

For one experiment, the target named is T1, Bcl-xL protein (Homo sapiens, UniProt Q07817, N197C).
T1 construct: (2-197)[N197C]; His-His (two His8 stretches joined by a Gly/Ala/Ser/Thr linker)
Nature of the experiment: Fluorescence quenching assay (PUMA peptide displacement). The experiment is classed as binding. The conditions noted are these: 1 nM protein, 400 nM peptide, 2 hours at 23° C.; KI determined from IC50. From the text: Fluorescence quenching assay measures the change in fluorescence intensity of C-terminally Cy5-labeled BCL-xL protein, His-His-(EK)-hs ? (2-197)[N197C] (UniProtKB® primary accession number Q07817-1) having an amino acid sequence (SEQ ID:03): [[…] […] […] […] […]] which is linked in C-terminal region to the amino acid X which corresponds to a cysteine labeled on the sulfur with Sulfo-Cyanine5 from Lumiprobe GmbH catalogue number 13380, upon binding of a C-terminally labeled peptide derived from PUMA (UniProtKB® primary accession number Q9BXH1) having an aminoacid sequence (SEQ ID:04): [[…]] which is linked in C-terminal region to the amino acid X′ where X′ is cysteine labeled on the sulfur with TQ5WS from AAT Bioquest catalogue number 2079.
The addition of a compound which binds competitively to the same site as the peptide will result in an increase in the fluorescence intensity of the protein due to displacement of the fluorescence quencher.
An 11-point serial dilution of each compound was prepared in DMSO the final buffer conditions were 10 mM 4-(2-hydroxyethyl)-1-piperazineethanesulfonic acid [HEPES], 150 mM NaCl, 0.05% Tween 20, pH 7.4 and 5% DMSO. The final protein concentration in the assay was 1 nM with the peptide present at 400 nM. The experiments were incubated for 2 hours at 23° C. before fluorescence intensity was measured on a Biotek SynergyNeo plate reader (Excitation 620 nm, emission 680 nm). […] The KI values were determined from the IC50 values according to Cer et al, Nucleic Acids Res, 2009, Jul. 1: 37(WebServer issue): W441-W445.

The next experiment concerns H146 cells. Nature of the experiment: H146 cell viability, MTT assay. The experiment is classed as cell-based. The conditions noted are these: 48 h exposure. In a few lines: (§1)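 Cells grown in RPMI 1640 with 10% heat-inactivated FBS at 37° C, 5% CO2, exposed 48 h to nine 3.16-fold serial compound dilutions in triplicate. MTT added for 4 h, SDS/HCl solubilisation overnight, absorbance at 540 nm; IC50 by four-parameter fit.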

The test system of another experiment is MOLT-4 cells. Nature of the experiment: MOLT-4 cell viability, MTT assay. The experiment is classed as cell-based. The note with it: 48 h exposure. In a few lines:
as §1
A general note: Tetrazolium dyes change colour on reduction, which living cells bring about.

T1 sequence (Q07817 2-197 N197C): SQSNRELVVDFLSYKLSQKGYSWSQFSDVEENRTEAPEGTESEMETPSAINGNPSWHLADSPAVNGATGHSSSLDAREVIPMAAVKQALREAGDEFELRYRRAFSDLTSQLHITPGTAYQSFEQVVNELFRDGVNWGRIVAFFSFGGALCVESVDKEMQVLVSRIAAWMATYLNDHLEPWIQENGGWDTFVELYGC

For `Cc1cc(N(C)c2nc(C(=O)O)c(CCCOc3ccc(C#CC(C)N4CCOCC4)cc3F)s2)nnc1Nc1nc2ccccc2s1` (single isomer, unassigned) [Example 206, 2-[[6-(1,3-Benzothiazol-2-ylamino)-5-methyl-pyridazin-3-yl]-methyl-amino]-5-[3-[2-fluoro-4-((3R or 3S)-morpholinobut-1-ynyl)phenoxy]propyl]thiazole-4-carboxylic acid], on Bcl-xL protein, the Ki (usually the equilibrium dissociation constant of an inhibitor or competing ligand from its target) was determined as 0.009 nM. Further, the IC50 – broadly, the point on the concentration scale where inhibition reaches its midpoint – in the experiment on H146 cells turned out to be 15 nM; in the experiment on MOLT-4 cells (Homo sapiens, MOLT-4, 48 h), 1.48 nM.

For `Cc1cc(N(C)c2nc(C(=O)O)c(CCCOc3ccc(C#CC(C)N4CCOCC4)cc3F)s2)nnc1Nc1nc2ccccc2s1` (single isomer, unassigned) [Example 208, 2-[[6-(1,3-Benzothiazol-2-ylamino)-5-methyl-pyridazin-3-yl]-methyl-amino]-5-[3-[2-fluoro-4-((3S or 3R)-morpholinobut-1-ynyl)phenoxy]propyl]thiazole-4-carboxylic acid], the Ki at Bcl-xL protein worked out at 0.0088 nM. Besides, the concentration for half-maximal inhibition (IC50) came to 7.33 nM with H146 cells and 0.753 nM in the experiment on MOLT-4 cells.

`CNCC#Cc1cc(F)c(OCCCc2sc(N(C)c3cc(C)c(Nc4nc5ccccc5s4)nn3)nc2C(=O)O)cn1` [Example 197, 2-({6-[(1,3-Benzothiazol-2-yl)amino]-5-methylpyridazin-3-yl}(methyl)amino)-5-[3-({4-fluoro-6-[3-(methylamino)prop-1-yn-1-yl]pyridin-3-yl}oxy)propyl]-1,3-thiazole-4-carboxylic acid]: on Bcl-xL protein, the Ki was found to be 0.0013 nM. In the experiment on H146 cells (Homo sapiens, NCI-H146, 48 h), the 50% inhibitory concentration (IC50) came out at 43.9 nM.

Consider `Cc1cc(N(CCCC(O)C[N+](C)(C)CCCS(=O)(=O)[O-])c2nc(C(=O)O)c(CCCOc3ccc(/C=C/C=O)cc3F)s2)nnc1Nc1nc2ccccc2s1` (stereo not shown) [Example 228, 3-[[5-[[6-(1,3-Benzothiazol-2-ylamino)-5-methyl-pyridazin-3-yl]-[4-carboxy-5-[3-[2-fluoro-4-[(E)-3-oxoprop-1-enyl]phenoxy]propyl]thiazol-2-yl]amino]-2-hydroxy-pentyl]-dimethyl-ammonio]propane-1-sulfonate], for which the Ki on Bcl-xL protein amounted to 0.22 nM. In the experiment with H146 cells (Homo sapiens, NCI-H146, 48 h), the IC50 was more than 30000 nM.

Consider `Cc1cc(N(CCCCS(=O)(=O)O)c2nc(C(=O)O)c(CCCOc3ccc(C#CCN(C)C)cc3F)s2)nnc1Nc1nc2ccccc2s1` [Example 241, 2-({6-[(1,3-Benzothiazol-2-yl)amino]-5-methylpyridazin-3-yl}(4-sulfobutyl)amino)-5-(3-{4-[3-(dimethylamino)prop-1-yn-1-yl]-2-fluorophenoxy}propyl)-1,3-thiazole-4-carboxylic acid], for which the Ki on Bcl-xL protein worked out at 0.0094 nM. Also, the IC50 in the experiment on MOLT-4 cells (Homo sapiens, MOLT-4, 48 h) worked out at 1190 nM.

For `Cc1cc(N(CCCCP(=O)(O)O)c2nc(C(=O)O)c(CCCOc3ccc(C#CCN(C)C)cc3F)s2)nnc1Nc1nc2ccccc2s1` [Example 242, 2-({6-[(1,3-Benzothiazol-2-yl)amino]-5-methylpyridazin-3-yl}(4-phosphonobutyl)amino)-5-(3-{4-[3-(dimethylamino)prop-1-yn-1-yl]-2-fluorophenoxy}propyl)-1,3-thiazole-4-carboxylic acid], on Bcl-xL protein, the Ki is 0.0078 nM. Moreover, half-maximal inhibition in the experiment with MOLT-4 cells (Homo sapiens, MOLT-4, 48 h) (IC50) was put at 525 nM.

For the compound `Cc1cc(N(CCCCC(=O)O)c2nc(C(=O)O)c(CCCOc3ccc(C#CCN(C)C)cc3F)s2)nnc1Nc1nc2ccccc2s1` [Example 243, 2-({6-[(1,3-Benzothiazol-2-yl)amino]-5-methylpyridazin-3-yl}(4-carboxybutyl)amino)-5-(3-{4-[3-(dimethylamino)prop-1-yn-1-yl]-2-fluorophenoxy}propyl)-1,3-thiazole-4-carboxylic acid], the Ki at Bcl-xL protein turned out to be 0.005 nM. Also, the IC50 in the experiment with MOLT-4 cells (Homo sapiens, MOLT-4, 48 h) worked out at 112 nM.

With `Cc1cc(N(C)c2ccc(-c3cnn(CC45CC6(C)CC(C)(C4)CC(OCCNCC[C@H](O)CO)(C6)C5)c3C)c(C(=O)O)n2)nnc1Nc1nc2ccccc2s1` [Example 247, 6-[{6-[(1,3-benzothiazol-2-yl)amino]-5-methylpyridazin-3-yl}(methyl)amino]-3-(1-{[3-(2-{[(3S)-3,4-dihydroxybutyl]amino}ethoxy)-5,7-dimethyladamantan-1-yl]methyl}-5-methyl-1H-pyrazol-4-yl)pyridine-2-carboxylic acid], on Bcl-xL protein, the Ki turned out to be 0.0012 nM. Also, the half-maximal inhibitory concentration (IC50) in the experiment with MOLT-4 cells (Homo sapiens, MOLT-4, 48 h) was determined as 2.81 nM.

In the case of `Cc1cc(N(C)c2ccc(-c3cnn(CC45CC6(C)CC(C)(C4)CC(OCCN(C)C)(C6)C5)c3C)c(C(=O)O)n2)nnc1Nc1nc2ccccc2s1` [Example 250, 6-[{6-[(1,3-benzothiazol-2-yl)amino]-5-methylpyridazin-3-yl}(methyl)amino]-3-[1-{{3-[2-(dimethylamino)ethoxy]-5,7-dimethyladamantan-1-yl}methyl)-5-methyl-1H-pyrazol-4-yl]pyridine-2-carboxylic acid], the Ki at Bcl-xL protein came to 0.0022 nM. This compound registered an IC50 in the experiment on MOLT-4 cells (Homo sapiens, MOLT-4, 48 h) of 0.246 nM.

With `C#CCCCN(c1cc(C)c(Nc2nc3ccccc3s2)nn1)c1nc(C(=O)O)c(CCCOc2ccc(C#CCNC)cc2F)s1` [Example 253, 2-[{6-[(1,3-benzothiazol-2-yl)amino]-5-methylpyridazin-3-yl}(pent-4-yn-1-yl)amino]-5-(3-{2-fluoro-4-[3-(methylamino)prop-1-yn-1-yl]phenoxy}propyl)-1,3-thiazole-4-carboxylic acid], the Ki at Bcl-xL protein was 0.07 nM. The same compound displayed an IC50 with MOLT-4 cells (Homo sapiens, MOLT-4, 48 h) of 31.7 nM.

With `CNCC#Cc1ccc(OCCCc2sc(N(CCCCCN=[N+]=[N-])c3cc(C)c(Nc4nc5ccccc5s4)nn3)nc2C(=O)O)c(F)c1` [Example 267, 2-[5-azidopentyl-[6-[(1,3-benzothiazol-2-yl)amino]-5-methyl-pyridazin-3-yl]amino]-5-[3-[2-fluoro-4-[3-(methylamino)prop-1-ynyl]phenoxy]propyl]-1,3-thiazole-4-carboxylic acid], the Ki at Bcl-xL protein worked out at 0.016 nM. In the experiment on MOLT-4 cells (Homo sapiens, MOLT-4, 48 h), inhibition was half-maximal at 43.8 nM (IC50).

Take `Cc1cc(N(C)c2ccc(-c3cnn(CC45CC6(C)CC(C)(C4)CC(OCCNCCCO)(C6)C5)c3C)c(C(=O)O)n2)nnc1Nc1nc2ccccc2s1` [Example 268, 6-[[6-(1,3-benzothiazol-2-ylamino)-5-methyl-pyridazin-3-yl]-methyl-amino]-3-[1-[[3-[2-(3-hydroxypropylamino)ethoxy]-5,7-dimethyl-1-adamantyl]methyl]-5-methyl-pyrazol-4-yl]pyridine-2-carboxylic acid]: the inhibitory constant (Ki) on Bcl-xL protein was 0.0023 nM. In the experiment with MOLT-4 cells (Homo sapiens, MOLT-4, 48 h), this compound gave an IC50 of 0.255 nM.

In the case of `COCCCNCCOC12CC3(C)CC(C)(CC(Cn4ncc(-c5ccc(N(C)c6cc(C)c(Nc7nc8ccccc8s7)nn6)nc5C(=O)O)c4C)(C3)C1)C2` [Example 269, 6-[[6-(1,3-benzothiazol-2-ylamino)-5-methyl-pyridazin-3-yl]-methyl-amino]-3-[1-[[3-[2-(3-methoxypropylamino)ethoxy]-5,7-dimethyl-1-adamantyl]methyl]-5-methyl-pyrazol-4-yl]pyridine-2-carboxylic acid], the inhibition constant (Ki) on Bcl-xL protein came out at 0.0027 nM. Besides, the IC50 in the experiment on MOLT-4 cells (Homo sapiens, MOLT-4, 48 h) worked out at 0.182 nM.

In the case of `Cc1cc(N(C)c2ccc(-c3cnn(CC45CC6(C)CC(C)(C4)CC(OCCN4CCOCC4)(C6)C5)c3C)c(C(=O)O)n2)nnc1Nc1nc2ccccc2s1` [Example 270, 6-[[6-(1,3-benzothiazol-2-ylamino)-5-methyl-pyridazin-3-yl]-methyl-amino]-3-[1-[[3,5-dimethyl-7-(2-morpholinoethoxy)-1-adamantyl]methyl]-5-methyl-pyrazol-4-yl]pyridine-2-carboxylic acid], at Bcl-xL protein, the inhibition constant Ki is 0.003 nM. In the experiment on MOLT-4 cells (Homo sapiens, MOLT-4, 48 h), this compound yielded an IC50 of 0.199 nM.

With `Cc1cc(N(C)c2ccc(-c3cnn(CC45CC6(C)CC(C)(C4)CC(OCCNCCC(=O)O)(C6)C5)c3C)c(C(=O)O)n2)nnc1Nc1nc2ccccc2s1` [Example 271, 6-[[6-(1,3-benzothiazol-2-ylamino)-5-methyl-pyridazin-3-yl]-methyl-amino]-3-[1-[[3-[2-(2-carboxyethylamino)ethoxy]-5,7-dimethyl-1-adamantyl]methyl]-5-methyl-pyrazol-4-yl]pyridine-2-carboxylic acid], the Ki at Bcl-xL protein was 0.0033 nM. In the experiment on MOLT-4 cells (Homo sapiens, MOLT-4, 48 h), this compound came in with an IC50 of 30.8 nM.

On to `Cc1cc(N(C)c2ccc(-c3cnn(CC45CC6(C)CC(C)(C4)CC(OCCNCc4cccc(O)c4)(C6)C5)c3C)c(C(=O)O)n2)nnc1Nc1nc2ccccc2s1` [Example 272, 6-[[6-(1,3-benzothiazol-2-ylamino)-5-methyl-pyridazin-3-yl]-methyl-amino]-3-[1-[[3-[2-[(3-hydroxyphenyl)methylamino]ethoxy]-5,7-dimethyl-1-adamantyl]methyl]-5-methyl-pyrazol-4-yl]pyridine-2-carboxylic acid], for which the Ki at Bcl-xL protein came out at 0.0023 nM. For the same compound, in the experiment with MOLT-4 cells (Homo sapiens, MOLT-4, 48 h), inhibition was half-maximal at 0.284 nM (IC50).
